Columns and labels:
[1] = xn = mol fraction of the nth substance listed; settings: 101.3 kPa, Liquid, x2 = 0; for viscosity: Concentric cylinders viscometry; for mass density: Vibrating tube method
[2] = 101.3 kPa, Liquid; for viscosity: Concentric cylinders viscometry; for mass density: Vibrating tube method

CCOC(=O)OCC [diethyl carbonate] + CCCCn1cc[n+](C)c1C.O=S(=O)([N-]S(=O)(=O)C(F)(F)F)C(F)(F)F
[1]
Settings	mass density [kg/m3]	viscosity [mPa·s]
293.15 K	974.9	0.805
298.15 K	969.3	0.751
303.15 K	963.7	0.702
308.15 K	958	0.659
313.15 K	952.4	0.62
318.15 K	946.7	0.584
323.15 K	940.9	0.552
328.15 K	935.2	0.523

COC(=O)OC [dimethyl carbonate]
[2]
Settings	mass density [kg/m3]	viscosity [mPa·s]
293.15 K	1069.7	0.629
298.15 K	1063.1	0.59
303.15 K	1056.4	0.555
308.15 K	1049.7	0.525
313.15 K	1043.1	0.495
318.15 K	1036.4	0.475
323.15 K	1029.6	0.446
328.15 K	1022.8	0.425

CCOC(=O)OCC [diethyl carbonate]
[2]
Settings	mass density [kg/m3]	viscosity [mPa·s]
293.15 K	974.9	0.805
298.15 K	969.3	0.751
303.15 K	963.7	0.702
308.15 K	958	0.659
313.15 K	952.4	0.62
318.15 K	946.7	0.584
323.15 K	940.9	0.552
328.15 K	935.2	0.523

CCOC(=O)OCC [diethyl carbonate] + CCn1cc[n+](C)c1C.O=S(=O)([N-]S(=O)(=O)C(F)(F)F)C(F)(F)F
[1]
Settings	mass density [kg/m3]	viscosity [mPa·s]
293.15 K	974.9	0.805
298.15 K	969.3	0.751
303.15 K	963.7	0.702
308.15 K	958	0.659
313.15 K	952.4	0.62
318.15 K	946.7	0.584
323.15 K	940.9	0.552
328.15 K	935.2	0.523

COC(=O)OC [dimethyl carbonate] + CCn1cc[n+](C)c1C.O=S(=O)([N-]S(=O)(=O)C(F)(F)F)C(F)(F)F
[1]
Settings	mass density [kg/m3]	viscosity [mPa·s]
293.15 K	1069.7	0.629
298.15 K	1063.1	0.59
303.15 K	1056.4	0.555
308.15 K	1049.7	0.525
313.15 K	1043.1	0.495
318.15 K	1036.4	0.475
323.15 K	1029.6	0.446
328.15 K	1022.8	0.425

CCCCn1cc[n+](C)c1C.O=S(=O)([N-]S(=O)(=O)C(F)(F)F)C(F)(F)F
[2]
Settings	mass density [kg/m3]	viscosity [mPa·s]
293.15 K	1423.1	133.6
298.15 K	1418.5	101.82
303.15 K	1413.9	79.23
308.15 K	1409.3	62.74
313.15 K	1404.8	50.56
318.15 K	1400.2	41.38
323.15 K	1395.6	34.32
328.15 K	1391	28.91

COC(=O)OC [dimethyl carbonate] + CCCCn1cc[n+](C)c1C.O=S(=O)([N-]S(=O)(=O)C(F)(F)F)C(F)(F)F
[1]
Settings	mass density [kg/m3]	viscosity [mPa·s]
293.15 K	1069.7	0.629
298.15 K	1063.1	0.59
303.15 K	1056.4	0.555
308.15 K	1049.7	0.525
313.15 K	1043.1	0.495
318.15 K	1036.4	0.475
323.15 K	1029.6	0.446
328.15 K	1022.8	0.425

CCn1cc[n+](C)c1C.O=S(=O)([N-]S(=O)(=O)C(F)(F)F)C(F)(F)F
[2]
Settings	mass density [kg/m3]	viscosity [mPa·s]
293.15 K	1495.8	89.88
298.15 K	1491	71.34
303.15 K	1486.3	57.64
308.15 K	1481.5	47.26
313.15 K	1476.7	39.24
318.15 K	1472	33
323.15 K	1467.2	28.05
328.15 K	1462.4	24.16

Reference: the NIST ThermoML archive (doi:10.1016/j.jct.2018.10.015)
